This is an account of results in PMC8068801, “Novel Benzenesulfonate Scaffolds with a High Anticancer Activity and G2/M Cell Cycle Arrest” (Cancers, 2021).

In assay [1] the target is T1, Lck (Homo sapiens, UniProt P06239).
T1 construct: purchased Promega
Kind of assay: Tyrosine kinase assay (Kinase Selectivity TK-2, ADP-Glo). In kind it is biochemical. Particulars: read-out: Inhibitory Effect of the Tyrosine Kinase Activity, Lck. How it is done:
(§1) Assays using the Kinase Selectivity TK-2 profiling systems and ADP-Glo Kinase Assay (both from Promega) were performed to determine the inhibition of the non-receptor tyrosine kinases. The protocol was previously designed and described by our group in reports. The experiments were performed at least four times. The data are expressed as the percentage of the inhibition activity of tyrosine kinase after treatment with the tested derivatives.

Assay [2] has as its target T2, Src (Homo sapiens, UniProt P12931).
T2 construct: purchased Promega
Described as above. In kind it is biochemical. Particulars: read-out: Inhibitory Effect of the Tyrosine Kinase Activity, Src. How it is done:
as §1

For assay [3], the target named is T3, BTK (Homo sapiens, UniProt Q06187).
T3 construct: purchased Promega
The assay is described as above. Particulars: read-out: Inhibitory Effect of the Tyrosine Kinase Activity, BTK. In kind it is biochemical. How it is done: as §1

Assay [4] deals with K562 cells. Description: Immunoblotting with densitometry, K562. In kind it is cell-based, human. Particulars: 24 h; for PARP/Reference 89 kDa, densitometric intensity ratio / caspase-9/Reference 37-35 kDa, densitometric intensity ratio: control 0.167; for AIF/Reference 67 kDa, densitometric intensity ratio / BID/Reference 22 kDa, densitometric intensity ratio / PARP/Reference 116 kDa, densitometric intensity ratio / caspase-9/Reference 47 kDa, densitometric intensity ratio / cdc2/Reference 34 kDa, densitometric intensity ratio / cyclin E1/Reference 48 kDa, densitometric intensity ratio: control 1.000. How it is done:
The K562 and U-251 cells were seeded in 3 cm Petri dishes (Nunc) at a density of 500,000 cells per well and incubated overnight. […] Next, the cell pellets were resuspended in an RIPA buffer containing a Halt Protease Inhibitor Cocktail and a Halt Phosphatase Inhibitor Cocktail along with 0.5 M EDTA (all from Thermo Scientific, Waltham, MA, USA) and lysed on ice for 20 min. Then, the obtained lysates were sonicated and centrifuged at 10,000 rpm for 10 min at 4 °C. The supernatants were collected for further analysis. The protein concentration was measured using a Micro BCA™ Protein Assay Kit (Thermo Scientific) according to the manufacturer’s instructions. Equal amounts of the proteins (16 μg) were electrophoresed on SDS-Page gels and transferred onto nitrocellulose membranes. The membranes were blocked in 5% non-fat milk prepared in TPBS (PBS containing 0.1% Tween-20) for 1 h. After blocking, the membranes were incubated with the specific primary antibodies (all from Cell Signaling) at a 1:1000 dilution—cyclin E, cdc2, PARP, AIF, BID, p53, p21^Waf1/Cip1, HIF-1α, cathepsin B and caspase-9—and at a 1:2000 dilution for the reference proteins—vinculin, β-actin and GAPDH—overnight at 4 °C. The next day, the membranes were washed in TPBS and incubated with horseradish peroxidase (HRP)-conjugated secondary antibodies for 1 h at room temperature. Lastly, the membranes were washed in TPBS and incubated with a SuperSignal™ West Pico Chemiluminescent Substrate (Thermo Scientific). The chemiluminescence signals were captured using a ChemiDoc™ XRS + System (Biorad). The experiments were performed at least four to five times. The densitometric analysis was conducted using ImageJ software (Wayne Rasband, National Institutes of Health, Bethesda, MD, USA).
The band intensity of tested proteins (p53, cyclin E1, cdc2, p21, HIF-1α, cathepsin b, PARP, caspase-9, BID, AIF) were analyzed by densitometry readings/intensity ratio, using ImageJ software (NIH) and were normalized to the corresponding reference proteins (GAPDH, vinculin or β-actin) value.
The densitometric readings/intensity ratio data from four/five independent experiments (compared to control): […]
p53/ Refer- p21/ Refer- cdc2/ Refer- Cyclin E1/ HIF-1α/ Cathepsin b/Reference ence ence ence Reference Reference
PARP/Reference BID/ Reference Caspase-9/Reference […]
cdc2/ Reference cyclin E1/ Reference AIF/ Reference BID/ Reference
(Immunoblotting shows a protein as a band on a membrane.)

The subject of assay [5] is U-251 cells. Description: MTS cytotoxicity assay, U-251. In kind it is cell-based, human. Particulars: for IC50: Homo sapiens, U-251, 72 h incubation, MTS; for Selectivity index, U-251: NHDF vs U-251. From the text: M. Rusin from the Maria Sklodowska-Curie Memorial Cancer Centre and Institute of Oncology in Gliwice, Poland. […] G. Kramer-Marek from the Institute of Cancer Research in London, United Kingdom. The human suspension chronic myelogenous leukemia cell line K562 and pancreas ductal adenocarcinoma cell line PANC-1 were purchased from Sigma-Aldrich (St. Louis, MO, USA), while the normal human dermal fibroblasts cell line NHDF were purchased from PromoCell. […] Each medium contained a combination of two antibiotics: penicillin and streptomycin (1% v/v; Gibco). All of these cell lines were grown under standard conditions at 37 °C with a 5% CO2 humidified atmosphere. Moreover, all of the cell lines were routinely tested for mycoplasma using the PCR technique with specific Mycoplasma primers to confirm that there was no contamination.
The assay was performed following a 72 h incubation with the various concentrations of the tested compounds. Then, 100 µL DMEM without phenol red with 20 µL of the CellTiter 96®AQueous One Solution-MTS (Promega, Promega, WI, USA) was added to each well and incubated for 1 h or 3 h (PANC-1) at 37 °C. The optical densities of the samples were measured at 490 nm using a multi-plate reader (Synergy 4, BioTek, Winooski, VT, USA). […] Each individual compound was tested in triplicate in a single experiment with each experiment being performed three or four times.

The subject of assay [6] is K562 cells. Description: Annexin V binding (apoptosis) assay, K562. Particulars: K562, 5 µM, 48 h; 5.56% in the control cells. In kind it is cell-based, human. How it is done:
The K562, U-251 and NHDF cells were seeded in 3 cm Petri dishes (Nunc) at a density of 250,000 cells per well and incubated at 37 °C for 24 h. Then, the medium was removed, and freshly prepared solutions of the tested compounds, BS1 and BS4 (two to three times the IC50 value), were added. After a 48 h incubation, the assays were performed using a FITC Annexin V Apoptosis Detection KIT with 7-AAD (Bio-Legend) according to the manufacturer’s instructions. Briefly, the cells were collected, washed twice with cold PBS and centrifuged at 300 g for 5 min. Next, the cells were resuspended in a 100 µL Annexin V Binding Buffer and incubated for 15 min at room temperature in the dark with 5 µL of FITC Annexin V and 5 µL 7-AAD Viability Staining Solution. After immunostaining, the number of events for live, early and late apoptotic cells were determined using a Muse Cell Analyzer. The experiments were performed at least four times.

T2 sequence (P12931 whole entry): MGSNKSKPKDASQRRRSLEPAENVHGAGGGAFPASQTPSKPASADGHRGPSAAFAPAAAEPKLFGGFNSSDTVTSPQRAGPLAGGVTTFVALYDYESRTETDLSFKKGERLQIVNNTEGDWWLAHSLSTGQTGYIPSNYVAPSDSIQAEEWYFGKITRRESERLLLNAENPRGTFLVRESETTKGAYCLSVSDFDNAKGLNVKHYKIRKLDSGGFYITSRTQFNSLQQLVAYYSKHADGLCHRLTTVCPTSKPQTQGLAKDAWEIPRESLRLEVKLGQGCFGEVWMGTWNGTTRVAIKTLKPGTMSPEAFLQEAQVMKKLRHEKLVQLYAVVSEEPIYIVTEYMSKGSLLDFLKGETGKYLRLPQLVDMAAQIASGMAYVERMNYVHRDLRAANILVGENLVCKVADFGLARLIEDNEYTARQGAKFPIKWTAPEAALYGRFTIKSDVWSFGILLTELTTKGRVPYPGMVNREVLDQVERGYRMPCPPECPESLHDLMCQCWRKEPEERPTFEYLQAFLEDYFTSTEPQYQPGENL
T1 sequence (P06239 whole entry): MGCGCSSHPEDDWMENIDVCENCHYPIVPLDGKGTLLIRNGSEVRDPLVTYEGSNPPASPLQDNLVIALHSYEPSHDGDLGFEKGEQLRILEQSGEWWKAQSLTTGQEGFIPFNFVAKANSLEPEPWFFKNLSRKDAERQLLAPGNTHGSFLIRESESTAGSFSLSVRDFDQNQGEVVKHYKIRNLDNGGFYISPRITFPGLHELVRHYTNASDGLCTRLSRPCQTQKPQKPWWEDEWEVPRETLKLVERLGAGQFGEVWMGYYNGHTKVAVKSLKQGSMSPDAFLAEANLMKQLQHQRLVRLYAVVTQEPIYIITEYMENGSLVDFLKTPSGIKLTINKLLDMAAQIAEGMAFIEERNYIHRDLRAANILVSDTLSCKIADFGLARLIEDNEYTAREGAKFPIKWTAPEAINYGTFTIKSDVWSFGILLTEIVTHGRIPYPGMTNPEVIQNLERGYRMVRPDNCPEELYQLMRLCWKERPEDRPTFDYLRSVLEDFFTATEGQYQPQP
T3 sequence (Q06187 whole entry): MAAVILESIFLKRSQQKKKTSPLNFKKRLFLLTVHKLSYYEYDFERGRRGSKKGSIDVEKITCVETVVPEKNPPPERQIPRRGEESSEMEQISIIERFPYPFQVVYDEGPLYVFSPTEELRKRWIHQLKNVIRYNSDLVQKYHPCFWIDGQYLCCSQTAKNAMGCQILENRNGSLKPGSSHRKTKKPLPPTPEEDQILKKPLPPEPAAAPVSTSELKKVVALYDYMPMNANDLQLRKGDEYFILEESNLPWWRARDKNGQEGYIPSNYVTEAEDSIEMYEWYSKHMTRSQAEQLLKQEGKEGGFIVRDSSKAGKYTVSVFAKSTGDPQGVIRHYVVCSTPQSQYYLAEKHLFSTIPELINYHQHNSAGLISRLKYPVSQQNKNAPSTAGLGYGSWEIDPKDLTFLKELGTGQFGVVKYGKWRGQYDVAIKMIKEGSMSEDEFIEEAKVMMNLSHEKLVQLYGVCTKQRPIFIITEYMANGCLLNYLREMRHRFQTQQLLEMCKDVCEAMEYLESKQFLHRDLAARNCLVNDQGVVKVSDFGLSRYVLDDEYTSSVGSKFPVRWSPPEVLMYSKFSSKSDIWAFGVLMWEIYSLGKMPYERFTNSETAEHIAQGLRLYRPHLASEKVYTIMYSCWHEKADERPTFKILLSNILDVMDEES

Regarding `COc1ccccc1/C=C/c1nc(OS(=O)(=O)c2ccc3c(c2)OCO3)c2ccccc2n1` [BS1, 2-((E)-2-(2-methoxyphenyl)ethenyl)quinazolin-4-yl 1,3-benzodioxole-5-sulfonate], the inhibition at 0.5 µM in assay [1] is 25.8%. The inhibition at 0.5 µM in assay [2] worked out at 0.19%. Further, the inhibition at 0.5 µM in assay [3] was determined as 18.8%. For the same molecule, the “Cleavage caspase-9 proteins (Western blot)” value in assay [4] (K562, 0.35 µM) is reported as “more than six-fold increase”. In assay [4] (K562, 0.35µM), the “PARP/Reference 89 kDa, densitometric intensity ratio” value worked out at 2.111; the “caspase-9/Reference 37-35 kDa, densitometric intensity ratio” value stood at 1.287; the “AIF/Reference 67 kDa, densitometric intensity ratio” value came out at 3.809; the “BID/Reference 22 kDa, densitometric intensity ratio” value is listed as 1.049. For the same molecule, in assay [4] (K562, 0.35µM), the “PARP/Reference 116 kDa, densitometric intensity ratio” value is recorded as 1.793; the “caspase-9/Reference 47 kDa, densitometric intensity ratio” value was found to be 1.109; the “cdc2/Reference 34 kDa, densitometric intensity ratio” value is 1.234; the “cyclin E1/Reference 48 kDa, densitometric intensity ratio” value turned out to be 1.273. In assay [4] (K562, 0.5µM), the “PARP/Reference 89 kDa, densitometric intensity ratio” value was found to be 2.156; the “caspase-9/Reference 37-35 kDa, densitometric intensity ratio” value was determined as 1.368; the “AIF/Reference 67 kDa, densitometric intensity ratio” value came to 2.737; the “BID/Reference 22 kDa, densitometric intensity ratio” value was determined as 0.695. In assay [4] (K562, 0.5µM), the “PARP/Reference 116 kDa, densitometric intensity ratio” value is given as 1.646; the “caspase-9/Reference 47 kDa, densitometric intensity ratio” value is 1.627; the “cdc2/Reference 34 kDa, densitometric intensity ratio” value came to 1.122; the “cyclin E1/Reference 48 kDa, densitometric intensity ratio” value was found to be 1.110. Besides, in assay [5], the IC50 (as a rule, the concentration that inhibits the measured activity by half) worked out at 1900 ± 649 nM and the “Selectivity index, U-251” value was 6.61. Further, the “Total (early and late) apoptotic cells” value in assay [6] came out at 31.99%.

Take `COc1ccccc1/C=C/c1nc(OS(=O)(=O)c2cc3c(cc2Br)OCO3)c2ccccc2n1` [BS2, 2-((E)-2-(2-methoxyphenyl)ethenyl)quinazolin-4-yl 6-bromo-1,3-benzodioxole-5-sulfonate]: the inhibition at 0.5 µM in assay [1] was found to be 9.93%. Besides, in assay [2], the inhibition at 0.5 µM was 26.3%. Also, the inhibition at 0.5 µM in assay [3] amounted to 40.2%. Further, in assay [4] (K562, 0.35µM), the “PARP/Reference 89 kDa, densitometric intensity ratio” value is given as 0.494; the “caspase-9/Reference 37-35 kDa, densitometric intensity ratio” value amounted to 1.268; the “AIF/Reference 67 kDa, densitometric intensity ratio” value was found to be 4.141; the “BID/Reference 22 kDa, densitometric intensity ratio” value came to 0.965. In addition, in assay [4] (K562, 0.35µM), the “PARP/Reference 116 kDa, densitometric intensity ratio” value stood at 1.556; the “caspase-9/Reference 47 kDa, densitometric intensity ratio” value was 1.108; the “cdc2/Reference 34 kDa, densitometric intensity ratio” value was found to be 1.338; the “cyclin E1/Reference 48 kDa, densitometric intensity ratio” value was found to be 1.640. Further, in assay [4] (K562, 0.5µM), the “PARP/Reference 89 kDa, densitometric intensity ratio” value is 0.811; the “caspase-9/Reference 37-35 kDa, densitometric intensity ratio” value is 1.113; the “AIF/Reference 67 kDa, densitometric intensity ratio” value turned out to be 4.160; the “BID/Reference 22 kDa, densitometric intensity ratio” value was determined as 0.762. In addition, in assay [4] (K562, 0.5µM), the “PARP/Reference 116 kDa, densitometric intensity ratio” value worked out at 1.665; the “caspase-9/Reference 47 kDa, densitometric intensity ratio” value amounted to 1.104; the “cdc2/Reference 34 kDa, densitometric intensity ratio” value is 1.206; the “cyclin E1/Reference 48 kDa, densitometric intensity ratio” value was 1.270. Also, in assay [5], the IC50 stood at 2300 ± 234 nM and the “Selectivity index, U-251” value worked out at 6.80.

Take `COc1ccccc1/C=C/c1nc(OS(=O)(=O)c2ccc(C)cc2)c2ccccc2n1` [BS4, 2-((E)-2-(2-methoxyphenyl)ethenyl)quinazolin-4-yl 4-methylbenzenesulfonate]: the inhibition at 0.5 µM was 19.5% in assay [1], 0% in assay [2] and 26.9% in assay [3]. Moreover, the IC50 in assay [5] was determined as 1910 ± 214 nM. The “Selectivity index, U-251” value in assay [5] was determined as 13.11. Besides, the “Total (early and late) apoptotic cells” value in assay [6] stood at 26.51%.
